Assay results published in patent US8324232B2, “4-pyrimidinesulfamide derivative” (Actelion Pharmaceuticals Ltd., priority 2007, dated 2012).

Assays:
[1] = Pharmacokinetics in the rat after single-dose oral administration; format: in vivo; conditions: male Wistar rats, plasma; for half-life: oral gavage 10 mg/kg; for clearance: oral, 10 mg/kg
Protocol: Pharmacokinetics in the Rat After Single-Dose Oral Administration
Male Wistar rats with a body weight of 200-250 g were used for pharmacokinetic experiments after an acclimatization period of at least 7 days. All animals were housed under conditions in accordance with the NIH guidelines. Two days prior to the experiment, rats were anesthetized with a mixture of ketamin (90 mg/kg) and xylazine 2% (10 mg/kg) i.p. A catheter was implanted under aseptic conditions into the jugular vein to allow for multiple blood sampling. After recovery from general anesthesia, animals were housed individually under standard laboratory conditions in Makrolon type-3 cages with wire mesh tops and standardized softwood bedding. Animals had free access to water and food during the recovery period and the entire duration of the experiment.
Pharmacokinetic experiments were performed in Wistar rats (m=2-3) after jugular vein cannulation to allow for serial blood sampling. Test compounds were administered orally by gavage at doses of 10 mg/kg. Blood was then sampled at pre-defined time points over a period of 24 h and plasma prepared by centrifugation. Drug concentrations in plasma were quantified using liquid chromatography coupled to mass spectrometry (limit of quantification: 4.6 ng/mL). Pharmacokinetic evaluation was performed using non-compartmental analysis.

[2] = molecular target: T1, human recombinant ETA receptors (Homo sapiens, UniProt P25101); assay: Inhibition of endothelin binding to membranes from CHO cells carrying human ETA receptors
T1 construct: expressed in transfected cells; host or cells: CHO cells (microsomal membranes)
T1 sequence (P25101 21-427): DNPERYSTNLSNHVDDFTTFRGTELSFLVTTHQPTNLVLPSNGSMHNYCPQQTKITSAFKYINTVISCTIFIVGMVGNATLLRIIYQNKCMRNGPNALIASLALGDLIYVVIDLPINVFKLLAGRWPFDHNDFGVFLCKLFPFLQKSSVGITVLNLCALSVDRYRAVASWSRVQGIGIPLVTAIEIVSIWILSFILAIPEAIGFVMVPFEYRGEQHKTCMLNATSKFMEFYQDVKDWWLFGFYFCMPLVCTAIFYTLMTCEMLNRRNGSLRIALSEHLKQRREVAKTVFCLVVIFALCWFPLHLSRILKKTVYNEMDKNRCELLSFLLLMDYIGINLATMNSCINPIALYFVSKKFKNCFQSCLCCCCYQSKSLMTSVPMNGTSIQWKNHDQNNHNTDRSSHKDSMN
Protocol: 1) Inhibition of Endothelin Binding to Membranes from CHO Cells Carrying Human ET Receptors
For competition binding studies, membranes of CHO cells expressing human recombinant ETA or ETB receptors were used.
All the test compounds were dissolved, diluted and added in DMSO.

ETA receptors = molecular target: T2, ETA receptors (Rattus norvegicus, UniProt P26684); assay: Inhibition of endothelin-1-induced contraction on isolated rat aortic rings
T2 construct: The thoracic aorta or trachea were excised, dissected and cut in 3-5 mm rings; from tissue; host or cells: thoracic aorta rings of adult Wistar rats, endothelium removed
T2 sequence (P26684 21-426): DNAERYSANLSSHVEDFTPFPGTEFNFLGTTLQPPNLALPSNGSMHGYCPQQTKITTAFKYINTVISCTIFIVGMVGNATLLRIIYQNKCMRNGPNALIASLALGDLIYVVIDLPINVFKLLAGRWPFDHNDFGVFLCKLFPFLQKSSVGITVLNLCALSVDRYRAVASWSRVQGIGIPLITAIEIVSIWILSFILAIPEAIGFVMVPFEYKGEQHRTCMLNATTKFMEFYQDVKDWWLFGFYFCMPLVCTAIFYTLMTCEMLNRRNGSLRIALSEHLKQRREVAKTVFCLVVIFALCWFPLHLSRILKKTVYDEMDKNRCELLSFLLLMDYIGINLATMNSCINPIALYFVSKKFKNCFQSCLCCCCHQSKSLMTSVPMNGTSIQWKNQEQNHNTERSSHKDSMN
Protocol: 2) Inhibition of Endothelin-Induced Contractions on Isolated Rat Aortic Rings (ETA Receptors) and Rat Tracheal Rings (ETB Receptors)
The functional inhibitory potency of the endothelin antagonists was assessed by their inhibition of the contraction induced by endothelin-1 on rat aortic rings (ETA receptors) and of the contraction induced by sarafotoxin S6c on rat tracheal rings (ETB receptors). Adult Wistar rats were anesthetized and exsanguinated. The thoracic aorta or trachea were excised, dissected and cut in 3-5 mm rings. The endothelium/epithelium was removed by gentle rubbing of the intimal surface. Each ring was suspended in a 10 mL isolated organ bath filled with Krebs-Henseleit solution (in mM; NaCl 115, KCl 4.7, MgSO4 1.2, KH2PO4 1.5, NaHCO3 25, CaCl2 2.5, glucose 10) kept at 37° C. and gassed with 95% O2 and 5% CO2. The rings were connected to force transducers and isometric tension was recorded (EMKA Technologies SA, Paris, France). The rings were stretched to a resting tension of 3 g (aorta) or 2 g (trachea). […] The functional inhibitory potency of the test compound was assessed by calculating the concentration ratio, i.e. the shift to the right of the EC50 induced by different concentrations of test compound. […]

SMILES | half-life [1] [h] | clearance [1] [mL/min/kg] | IC50 [2] [nM] | Kb (ETA receptors) [nM]
CCCNS(=O)(=O)Nc1ncnc(OCCOc2ncc(Br)cn2)c1-c1ccc(Br)cc1 [Reference Compound, Propylsulfamic acid [5(4 bromo-phenyl)-6-[2-(5-bromo-pyrimidin-2-yloxy)-ethoxy]-pyrimidin-4-yl]-amide, reference compound] | 2.8 to 4.2 | 5.7 to 10 |  | 
NS(=O)(=O)Nc1ncnc(OCCOc2ncc(Br)cn2)c1-c1ccc(Br)cc1 [Compound of formula I, {5-(4-bromo-phenyl)-6-[2-(5-bromo-pyrimidin-2-yloxy)-ethoxy]-pyrimidin-4-yl}-sulfamide] | 8.7 | 1.3 | 3.7 | 200
